Consider four compounds from patent US10800806B2, “Sterol derivatives and use thereof for treating diseases involving transformed astrocyte cells or for treating malignant haemopathies” (BETA INNOV, priority 2012, dated 2020).

The test system of data set [1] is immortalized (spontaneously transformed) rat astrocyte lines. Conditions: in vitro; cited from earlier work.
In data set [2] the test system is human glioblastoma lines (GBM, line U-87 MG). The experiment in a line: Anti-GBM activity in vitro on cultures of human U87-MG cells, cell aggregates (CA). It is filed as cell-based. The procedure: (§1) Plastic flat-bottomed 96-well culture plates (NUNC, USA) treated for cell culture (Sigma-Aldrich, ref. 114754) are used; 1500 cells are seeded per well in 200 μl of culture medium. At the time of treatment, 100 μl of pure culture medium, 100 μl of culture medium containing ethanol, or liposomes, or 100 μl of culture medium containing the active ingredients are added per well; the final volume of the culture medium, after treatment, is therefore 300 μl for all the wells.
The human glioblastoma lines (GBM, line U-87 MG) and their culture medium (Eagle's Minimum Essential Medium or EMEM) were obtained from ATCC (USA, ref. ATCC-HTB-14). Culture of the cells is started and maintained according to the recommendations of the ATCC. These lines are commonly used “in vitro” and “in vivo” for testing anti-GBM potential. The doubling time of these lines is 16 h.
The active ingredients are either dissolved in absolute ethanol (AnalaR, NORMAPUR, VWR, France) or in the form of a liposomal solution, such as 10 μl of the stock solutions diluted in 990 μl and then added to the culture wells ([…] medium per well BI-GBM: 300 μl).
(§2) When the active ingredients are in ethanolic solution, the culture medium contains […] ethanol (v/v).
Briefly, the compounds to be tested, namely the compounds according to the invention (active ingredients) or 7β-OHCH—C3-ester (a derivative of 7beta-hydroxysterol esterified in position 3 with an oleate group, the synthesis of which is described by Rakotoarivelo et al. (18) and used as control), soya phosphatidylcholine (Sigma) as well as cholesteryl-3-sulphate (Sigma) are taken from their stock solutions prepared from dichloroethane in the case of the active ingredients and the 7β-OHCH—C3-ester, a chloroform:methanol mixture (9:1, v/v) in the case of phosphatidylcholine and chloroform in the case of cholesteryl-3-sulphate. The molar ratios are 1 M/0.1 M/0.25 M for phosphatidylcholine, cholesteryl-3-sulphate and the 7β-OHCH—C3-ester and the active ingredients respectively.
After evaporation, a solution of PBS saline, without Ca^2+ and Mg^2+, pH7.2 (BioRad) is added to the dry compound. The volume of buffer and the mass of the products are adjusted so that 20 or 10 μl of liposomes added to 90 μl of culture medium gives the desired final concentrations. The liposomes are formed by the extrusion technique with Liposofast (Sodexim, SA Muizon, France). The solution is passed through polycarbonate filtration membranes (100 nm) 41 times. The liposomes are sterilized by filtration on […] Millipore membranes.
(§3) For example, in the case of the cultures in 96-well plates and as a function of the magnification of the microscope used (objectives×10 or ×20, oculars×10), a photograph taken represents a field of view with a diameter equal to 1/5 of the diameter of a well. Therefore the total number of cells in a well is equal to […] the number of cells per photograph. This technique was compared with a standard technique (trypsinization of the cell layer, centrifugation of the cells, suspension of the cells in physiological saline solution and counting with a THOMA cell) in the case of the C6 cells. The results obtained are identical for both methods.
(§4) The culture medium is withdrawn from each well and 50 μl of Laemmli buffer (0.1 ml of Tris, 0.8 ml of glycerol, 1.6 mL of 10% SDS, 8 ml q.s.f ultrapure water) is added per well.
This test makes it possible to detect the cellular respiration, especially the mitochondrial respiration. The stock solution of tetrazolium salt MTT (3-(4,5-dimethylthiazol-2-yl)-2,5-diphenyl tetrazolium bromide, Sigma-Aldrich, USA, ref. M5655) is prepared with 10 mg of MIT/ml of PBS buffer (phosphate-buffered saline, SIGMA, ref. D 1408). This solution is added directly to the culture medium in each well; the final concentration of MTT is 25 μg/ml. The plate is then incubated at 37° C. for at least 1 h. […]

The next data set relates to GBMs (rat line C6). Conditions: in vitro; cited from earlier work.
Another data set can be described thus: Solubility in ethanol. The format is physicochemical. As to conditions: ethanolic form.
Data set [3] concerns CD133+ stem cells (U87-MG cultures). Put plainly: Immunolabelling of the CD133+ stem cells with the A/B peroxidase system. It is filed as cell-based, human. As to conditions: for CD133+ cells, percentage relative to the controls: 80 μM in liposomal form; for destruction of the CD133+ stem cells: liposomal form. On the procedure: The anti-CD133 (poly, Abnova), anti-GFAP (poly, Sigma), anti-NFL (mono, Santa Cruz) and anti-fibroblast (ERTR7, Santa Cruz) primary antibodies are diluted to 1/100 in the case of the first three antibodies and to 1/50 in the case of the last.
The secondary antibodies corresponding to recognition of the primary antibodies are anti-rabbit antibodies coupled to peroxidase (goat, Sigma), anti-mouse coupled to Dylight 488 (sheep, Sigma), anti-mouse coupled to Dylight 488 (sheep, Sigma) and anti-rat coupled to FITC (rabbit, Sigma). The dilutions are 1/4000, 1/1000, 1/4000 and 1/400 respectively.
The cells are permeabilized for 5 min with 0.1% Triton X-100 (Sigma) in PBS (Fisher Scientific). The nonspecific sites are blocked with 2% BSA (Sigma) in PBS. Incubations are carried out for 1 h at ambient temperature, 48 h at 4° C., 24 h at 4° C. and 1 h at ambient temperature for the anti-CD133, anti-GFAP, anti-NFL and anti-Fibroblast antibodies respectively. Incubation with the secondary antibodies is carried out for 1 h at ambient temperature. The CD133 positive cells are detected by the DAB/H2O2 system (Sigma), and observed with an optical microscope.
The immunolabelling is carried out as described above (section II, A).

The subject of a further data set is C6 cells. Put plainly: Anti-GBM activity in vitro on cultures of C6 cells (cell counting, protein assay, MTT test). The format is cell-based, rat. The procedure: as §1
The cultures are incubated in a Sanyo incubator (Japan, model MCO-19AlC-UV) at 37° C. and in an atmosphere with 5% CO2 and saturated in humidity. The cells are observed with an inverted microscope (Nikon Eclipse TS100, Japan) and the photographs are taken with a camera (DIGITAL camera with c-mount; LABOVER, France). The culture hood is a microbiological safety hood MSC (thermo SCIENTIFIC, model HERA SAFE KS12, France).
The type C6 cell line was obtained by Benda et al. (16) from rat brain tumours, induced by N-methylnitrosourea. This cell type is used as “in vitro” and “in vivo” model for evaluating anti-GBM potential. The lines originate from the former Strasbourg Neurochemistry Centre (U44 INSERM and UPR 416 CNRS).
The culture medium is made up of 70% Minimum Essential Medium (MEM; (Fischer Scientifique, ref. 61100) and 30% Hanks solution (SIGMA, ref. H 9269). The following are added to the culture medium: foetal calf serum (FCS; Fischer Scientifique, ref. 10108165) at a final concentration of 5% (v/v), an antibiotic solution of ciprofloxacin hydrochloride 5 μg/mL (EUROMEDEX, ref. UC5074) and a solution of Fungizone 2.5 μg/mL (INVITROGEN, ref. 15290-026). The doubling time of this cell type is 17 h. • GBM lines of human origin
The active ingredients are either dissolved in absolute ethanol (AnalaR, NORMAPUR, VWR, France) or in the form of a liposomal solution, such as 10 μl of the stock solutions diluted in 990 μl and then added to the culture wells (200 μl of culture medium) giving concentrations of 30.0, 15.0, 7.5 and 3.3 μM (final volume of culture medium per well BI-GBM: 300 μl).
as §2
A method of cell counting on photographs was used.
as §3, §4
In control wells, 10 μl of a solution of bovine serum albumin range (crystallized BSA, Sigma) is added; the range is from 0 to 20 μg per well. The wells are then supplemented with 40 μl of Laemmli buffer. Finally, 200 μl of solution of BCA reagent is added (Pierce, USA; BCA Protein Assay Kit; ThemoScientific, France).
The culture plates are incubated for 30 min at 37° C. The optical density for each well is read and quantified by a plate reader (BioRad, USA, iMark Microplate reader 12222) at 570 nm.
This test makes it possible to detect the cellular respiration, especially the mitochondrial respiration. The stock solution of tetrazolium salt MTT (3-(4,5-dimethylthiazol-2-yl)-2,5-diphenyl tetrazolium bromide, Sigma-Aldrich, USA, ref. M5655) is prepared with 10 mg of MIT/ml of PBS buffer (phosphate-buffered saline, SIGMA, ref. D 1408). […]

Data set [4] concerns Neuroblastoma (line SH-SY5Y, ATCC-CRL-2266). Put plainly: Activity in vitro on human neuroblastomas. It is filed as cell-based. Conditions: 22 μM once, concentrated liposomal form, 28 days of treatment. The procedure: They were obtained from the ATCC collection (Ref. ATCC-CRL-2266). The culture conditions are based on the recommendations in the ATCC information leaflet. • Chronic Myelomonocytic Leukaemia (CMML)
The neuroblastomas were treated with empty liposomes (controls) or with liposomes containing molecule 1.b or 2.b, 24 h after starting the culture. The cells are treated once with 22 μM of molecule 1.b or 22 μM of molecule 2.b. The liposomal form is concentrated.
For the control cells, the upper left hand photograph marked with the letter A was taken after 7 days of treatment; the lower left hand photograph marked with the letter B was taken after 28 days of treatment.
For the cells treated with the concentrated liposomal molecule 1.b, the photograph marked with the letter C (in the middle, at the top) was taken after 7 days of treatment and the photograph marked with the letter D (in the middle, at the bottom) after 28 days of treatment. For the cells treated with the concentrated liposomal molecule 2.b, the upper right hand photograph marked with the letter E was taken after 7 days of treatment.

As to `CC(C)CCC[C@@H](C)[C@H]1CC[C@H]2[C@@H]3[C@@H](O)C=C4C[C@@H](O)CC[C@]4(C)[C@H]3CC[C@]12C` [7β-OHCH, 7β-Hydroxycholesterol], the cytotoxicity result (in data set [1]; in the data set with GBMs (rat line C6)) was “remarkable cytotoxicity” in each case. Besides, in data set [2] (control experiments at the very low levels formed from molecule 2.b), the “death of GBMs” value was “do not induce any death of GBMs”.
For `CCCCCCCC/C=C\CCCCCCCC(=O)O[C@H]1CC[C@@]2(C)C(=C[C@H](O)[C@H]3[C@@H]4CC[C@H]([C@H](C)CCCC(C)C)[C@@]4(C)CC[C@@H]32)C1` [7β-OHCH—C3-ester], in data set [2] (ethanolic form), the “action on the GBMs (CA)” value was “does not act” and the anti-tumour activity result was “no anti-tumour activity is observed”. In data set [2] (liposomal form), the “efficacy on increasing the dose” value was “not better, or even decreases” and the “reduction of the level of proteins relative to the untreated control cells” value came out at 85%. In data set [2] (liposomal form, 80 μM), the MTT/cell ratio entry is “does not vary” and the “action on the GBMs (CA)” value is reported as “only acts in liposomal form”. The “cell multiplication after replacing the medium with fresh drug-free medium” value in data set [2] (liposomal form, medium replaced on the 13th day of treatment) is “cell multiplication is observed”. For the same compound, the “increase in the MTT test after removal of the drug” value in data set [2] (medium replaced on the 13th day, two days later) turned out to be 40%. The “solubility in ethanol (concentration above which no longer soluble)” value in “Solubility in ethanol” is at most 30 µM. In data set [3] (4 days of treatment), the “CD133+ cells, percentage relative to the controls” value worked out at 100%. The “CD133+ cells, percentage relative to the controls” value in data set [3] (22 days of treatment) came out at 50%. Also, in data set [3], the “destruction of the CD133+ stem cells” value is recorded as “This is not the case”. Moreover, in data set [3] (listed as 7beta-OHCH-C3-ester), the “destruction of the CD133+ stem cells” value was “does not completely destroy the CD 133+”.
As for `CC(C)CCCC(C)C1CCC2C3C(OC(=O)OC(C)(C)C)C=C4CC(OC(=O)C(C)NC(=O)CNC(=O)OCc5ccccc5)CCC4(C)C3CCC12C` (centres unmarked) [Molecule 1.a, 7-((tert-butoxycarbonyl)oxy)-10,13-dimethyl-17-(6-methylheptan-2-yl)-2,3,4,7,8,9,10,11,12,13,14,15,16,17-tetradecahydro-1H-cyclopenta[a]phenanthren-3-yl 2-(2-(((benzyloxy)carbonyl)amino)acetamido)propanoate], the “increase of the MTT/cell ratio relative to the control cultures” value with C6 cells (15 μM, 19 days of treatment) is given as 20%. Also, the “reduction of the number of cells, the level of proteins and the MTT assay” value in the data set on C6 cells (15 μM, ethanolic form, 14 days of treatment) was 30%; in the data set with C6 cells (15 μM, ethanolic form, 19 days of treatment) it was at least 97%. Further, in the data set with C6 cells (7.5 and 3.3 μM, 19 days of treatment), the dose-dependence entry is recorded as “dose-dependence is also observed”. Also, the Live residual cells with C6 cells (15 μm, ethanol 3%) is reported as 3%. For the same compound, the cytotoxicity entry with C6 cells (ethanolic form, after 19 days of treatment) is recorded as “cytotoxic”.
On to `CC(=O)OC1C=C2CC(OC(=O)C(C)NC(=O)CNC(=O)OCc3ccccc3)CCC2(C)C2CCC3(C)C(C(C)CCCC(C)C)CCC3C12` (centres unmarked) [Molecule 1.b, 7-acetoxy-10,13-dimethyl-17-(6-methylheptan-2-yl)-2,3,4,7,8,9,10,11,12,13,14,15,16,17-tetradecahydro-1H-cyclopenta[a]phenanthren-3-yl 2-(2-(((benzyloxy)carbonyl)amino)acetamido)propanoate], for which the “toxicity to neuroblastoma cells compared to the control cells” value in data set [4] is on record as “toxic to almost all the cells”.
